Data on one compound can be found in PMC4522657, “Identification of a DYRK1A Inhibitor that Induces Degradation of the Target Kinase using Co-chaperone CDC37 fused with Luciferase nanoKAZ” (Scientific Reports, 2015).

For test [1], the target named is T1, HER2 (Homo sapiens, UniProt P04626).
T1 construct: purchased Carna Biosciences
In words: Kinase panel, CaNDY 1 µM. It counts as biochemical. To be noted: CaNDY 1 µM relative to DMSO.

In test [2] the target is T2, PAK5 (Homo sapiens, UniProt Q9P286).
T2 construct: purchased Carna Biosciences
The test is described as follows: Kinase panel, CaNDY 1 µM. It counts as biochemical. The settings on record: CaNDY 1 µM relative to DMSO.

Test [3] has as its target T3, IRAK1 (Homo sapiens, UniProt P51617).
T3 construct: purchased Carna Biosciences
The test is described as follows: Kinase panel, CaNDY 1 µM. In kind it is biochemical. To be noted: CaNDY 1 µM relative to DMSO.

The target of test [4] is T4, KIT(V560G) (Homo sapiens, UniProt P10721, V560G).
T4 construct: purchased Carna Biosciences
In words: Kinase panel, CaNDY 1 µM. In kind it is biochemical. To be noted: CaNDY 1 µM relative to DMSO.

The target in test [5] is T5, interaction of CDC37-nanoKAZ with 3xFLAG-DYRK1A (Y319F/Y321F) (Homo sapiens, UniProt Q13627, Y319F/Y321F).
T5 construct: F2A peptide linking to EGFP (2A skipping releases EGFP; a 2A remnant may stay on DYRK1A) (C); expressed in transfected cells; host or cells: 293T cells stably expressing CDC37-nanoKAZ, transiently transfected with pcDNA5/FRT/TO 3xFLAG-DYRK1A (Y319F/Y321F)
The test is described as follows: CDC37-nanoKAZ binding assay (ELISA of the CDC37-nanoKAZ interaction) in 293T cells. In kind it is cell-based. The protocol:
The cells were then treated with the indicated concentrations of small molecules for one hour. Cell lysates were added to FLAG antibody-coated 96-well plates and luminescence intensities were measured. The amount of bound 3xFLAG-DYRK1A was measured using a HRP-conjugated antibody against FLAG. The relative Imax for CDC37-nanoKAZ was normalized using the amount of bound protein.
Stable cell lines transfected with expression vectors for 3xFLAG-tagged DYRK family kinases and its mutants were lysed in ice-cold HENG buffer (50 mM HEPES-KOH, pH 7.9, 150 mM NaCl, 20 mM Na2MoO4, 2 mM EDTA, 5% Glycerol, 0.5% TritonX-100) containing protease inhibitor cocktail (Nacalai Tesque) on ice. […] The wells were wash three times with ice-cold HENG buffer and then a luminescence assay was performed.
The luminescence activity of the cell lysates was determined using a Centro LB 960 Microplate Luminometer (Berthold Technologies, Bad Wildbad, Germany). A reaction mixture containing bis-coelenterazine (final concentration of 0.1–1 μg/100 μL) in PBS containing 0.02% Tween20 and 20 mM EDTA was injected. The luminescence intensity was recorded at 0.1 s intervals for 10 s or 10 min. The maximum luminescence intensity (Imax), represented in relative luminescence units (rlu), was used in the study.
After measuring the luminescence intensities, the wells were washed three times with HENG buffer, and incubated with HRP-conjugated anti-FLAG antibody diluted with PBS containing […] and 2% fetal bovine serum at 37 °C for one hour. After extensive washing, […] Super Sensitive One Component HRP Microwell Substrate (SurModics, Eden Prairie, MN, USA) was added into the well and the reaction was stopped with sulfuric acid. Absorbance at 450 nm was measured with ARVO X5 (PerkinElmer). The relative amount of protein bound on the well was estimated from the absorbance.
In Supporting Figure S1a, the values of Imax are shown in kinetics plots. In Figs 2c,e, 3c, S1d, S3, and S4, the relative luminescence intensities are shown as the fold-change in the Imax values of the samples relative to Imax with EGFP. In Figs 4, 5a,c and 6c, the relative luminescence intensities were normalized to the amount of the bound 3xFLAG-DYRK1A mutant and calculated as the fold-change relative to the value at 0 μM of the compounds.
Small molecules in our original synthetic chemical library, including unpublished small molecule inhibitors of DYRK1A and its structural derivatives (data not shown), were added to the 96-well plates containing the transfected cells at a final concentration of 4 μM. The cells were then processed as described above.

Test [6] concerns the target T6, PHKG2 (Homo sapiens, UniProt P15735).
T6 construct: purchased Carna Biosciences
The test is described as follows: Kinase panel, CaNDY 1 µM. The settings on record: CaNDY 1 µM relative to DMSO. It counts as biochemical.

The target in test [7] is T7, PYK2 (Homo sapiens, UniProt Q14289).
T7 construct: purchased Carna Biosciences
The test is described as follows: Kinase panel, CaNDY 1 µM. It counts as biochemical. The settings on record: CaNDY 1 µM relative to DMSO.

Test [8] concerns the target T8, RSK4 (Homo sapiens, UniProt Q9UK32).
T8 construct: purchased Carna Biosciences
The test is described as follows: Kinase panel, CaNDY 1 µM. To be noted: CaNDY 1 µM relative to DMSO. It counts as biochemical.

In test [9] the target is T9, EGFR(T790M) (Homo sapiens, UniProt P00533, T790M).
T9 construct: purchased Carna Biosciences
The test is described as follows: Kinase panel, CaNDY 1 µM. It counts as biochemical. The settings on record: CaNDY 1 µM relative to DMSO.

The target of test [10] is T10, MST1 (Homo sapiens, UniProt Q13043).
T10 construct: purchased Carna Biosciences
The test is described as follows: Kinase panel, CaNDY 1 µM. To be noted: CaNDY 1 µM relative to DMSO. In kind it is biochemical.

Test [11] concerns the target T11, GST-tagged human DYRK1A (Homo sapiens, UniProt Q13627).
T11 construct: purchased Life Technologies PV3785
The test is described as follows: ATP kinetics assay. In kind it is biochemical. The protocol: The kinase reaction for ATP kinetics was performed in a reaction mixture containing serially diluted inhibitors, 10 mM MOPS-KOH (pH 7.0), 10 mM magnesium acetate, 200 μM EDTA, 2.5–40 μM ATP, 0.125–0.4 μCi [γ-^32P]ATP, 5 μM DYRKtide (Anaspec, CA, USA), and 1 nM of GST-tagged human DYRK1A (Cat# PV3785, Life Technologies), for a final volume of 25 μl. The final concentration of DMSO was adjusted to 0.1%, regardless of the inhibitor concentration. The reaction mixture was incubated at 30 °C for 15 min, and phosphoric acid (final 5%) was then added to stop the reaction. 25 μL of the reaction mixture was dispensed onto P81, a phosphocellulose membrane (Whatman, GE Healthcare), and washed four times in 5% phosphoric acid. Cherenkov light from the incorporated ^32P was measured using a liquid scintillation counter. The kinase assay conditions, including the incubation period and the concentration of the kinases and substrates, were optimized to maintain linearity during the incubation. The net radioactivity was determined by subtracting the background count from the reaction mixture without kinase. The amount of incorporated ^32P was calculated from the standard line. The Km and Ki values were calculated with Prism6 software (GraphPad Software, San Diego, CA, USA) using the competitive inhibition model.

Test [12] deals with T12, p38γ (Homo sapiens, UniProt P53778).
T12 construct: purchased Carna Biosciences
The test is described as follows: Kinase panel, CaNDY 1 µM. It counts as biochemical. The settings on record: CaNDY 1 µM relative to DMSO.

Test [13] deals with T13, Erk1 (Homo sapiens, UniProt P27361).
T13 construct: purchased Carna Biosciences
The test is described as follows: Kinase panel, CaNDY 1 µM. In kind it is biochemical. The settings on record: CaNDY 1 µM relative to DMSO.

Test [14] deals with T14, Erk2 (Homo sapiens, UniProt P28482).
T14 construct: purchased Carna Biosciences
In words: Kinase panel, CaNDY 1 µM. In kind it is biochemical. To be noted: CaNDY 1 µM relative to DMSO.

In test [15] the target is T15, TAOK2 (Homo sapiens, UniProt Q9UL54).
T15 construct: purchased Carna Biosciences
In words: Kinase panel, CaNDY 1 µM. To be noted: CaNDY 1 µM relative to DMSO. It counts as biochemical.

Test [16] concerns the target T16, RET (Homo sapiens, UniProt P07949).
T16 construct: purchased Carna Biosciences
The test is described as follows: Kinase panel, CaNDY 1 µM. In kind it is biochemical. To be noted: CaNDY 1 µM relative to DMSO.

Test [17] addresses T17, FGFR4(N535K) (Homo sapiens, UniProt P22455, N535K).
T17 construct: purchased Carna Biosciences
The test is described as follows: Kinase panel, CaNDY 1 µM. In kind it is biochemical. To be noted: CaNDY 1 µM relative to DMSO.

T15 sequence (Q9UL54 whole entry): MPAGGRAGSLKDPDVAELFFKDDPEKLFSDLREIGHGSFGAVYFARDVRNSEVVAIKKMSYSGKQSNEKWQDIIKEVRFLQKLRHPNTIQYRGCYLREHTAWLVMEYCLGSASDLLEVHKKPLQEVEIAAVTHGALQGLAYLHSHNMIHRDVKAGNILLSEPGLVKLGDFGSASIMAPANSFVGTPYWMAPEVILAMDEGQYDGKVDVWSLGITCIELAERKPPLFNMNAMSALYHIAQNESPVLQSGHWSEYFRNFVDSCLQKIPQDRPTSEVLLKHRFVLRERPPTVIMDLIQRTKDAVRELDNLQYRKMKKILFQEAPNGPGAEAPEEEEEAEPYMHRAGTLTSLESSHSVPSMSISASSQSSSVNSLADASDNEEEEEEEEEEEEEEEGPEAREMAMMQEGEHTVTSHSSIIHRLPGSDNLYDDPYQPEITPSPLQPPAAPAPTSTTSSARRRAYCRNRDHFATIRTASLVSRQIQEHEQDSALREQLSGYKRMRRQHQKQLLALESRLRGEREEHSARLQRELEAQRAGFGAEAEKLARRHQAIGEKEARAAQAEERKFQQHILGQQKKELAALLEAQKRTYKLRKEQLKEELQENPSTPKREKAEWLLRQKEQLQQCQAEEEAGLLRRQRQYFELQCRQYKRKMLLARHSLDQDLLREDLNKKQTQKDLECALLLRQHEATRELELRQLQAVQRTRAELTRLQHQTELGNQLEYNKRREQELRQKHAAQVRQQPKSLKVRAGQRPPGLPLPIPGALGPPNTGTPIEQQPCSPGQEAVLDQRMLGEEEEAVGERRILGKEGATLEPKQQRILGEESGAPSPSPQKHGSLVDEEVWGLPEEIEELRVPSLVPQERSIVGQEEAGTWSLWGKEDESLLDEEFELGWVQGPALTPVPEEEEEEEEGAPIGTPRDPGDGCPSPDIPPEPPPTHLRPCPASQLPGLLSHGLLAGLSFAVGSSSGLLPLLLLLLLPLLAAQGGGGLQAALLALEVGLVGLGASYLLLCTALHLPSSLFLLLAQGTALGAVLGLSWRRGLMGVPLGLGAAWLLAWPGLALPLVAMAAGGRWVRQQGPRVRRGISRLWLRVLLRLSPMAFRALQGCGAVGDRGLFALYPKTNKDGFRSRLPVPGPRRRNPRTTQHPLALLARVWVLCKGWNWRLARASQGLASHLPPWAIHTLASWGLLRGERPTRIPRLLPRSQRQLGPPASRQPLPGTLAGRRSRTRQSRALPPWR
T7 sequence (Q14289 whole entry): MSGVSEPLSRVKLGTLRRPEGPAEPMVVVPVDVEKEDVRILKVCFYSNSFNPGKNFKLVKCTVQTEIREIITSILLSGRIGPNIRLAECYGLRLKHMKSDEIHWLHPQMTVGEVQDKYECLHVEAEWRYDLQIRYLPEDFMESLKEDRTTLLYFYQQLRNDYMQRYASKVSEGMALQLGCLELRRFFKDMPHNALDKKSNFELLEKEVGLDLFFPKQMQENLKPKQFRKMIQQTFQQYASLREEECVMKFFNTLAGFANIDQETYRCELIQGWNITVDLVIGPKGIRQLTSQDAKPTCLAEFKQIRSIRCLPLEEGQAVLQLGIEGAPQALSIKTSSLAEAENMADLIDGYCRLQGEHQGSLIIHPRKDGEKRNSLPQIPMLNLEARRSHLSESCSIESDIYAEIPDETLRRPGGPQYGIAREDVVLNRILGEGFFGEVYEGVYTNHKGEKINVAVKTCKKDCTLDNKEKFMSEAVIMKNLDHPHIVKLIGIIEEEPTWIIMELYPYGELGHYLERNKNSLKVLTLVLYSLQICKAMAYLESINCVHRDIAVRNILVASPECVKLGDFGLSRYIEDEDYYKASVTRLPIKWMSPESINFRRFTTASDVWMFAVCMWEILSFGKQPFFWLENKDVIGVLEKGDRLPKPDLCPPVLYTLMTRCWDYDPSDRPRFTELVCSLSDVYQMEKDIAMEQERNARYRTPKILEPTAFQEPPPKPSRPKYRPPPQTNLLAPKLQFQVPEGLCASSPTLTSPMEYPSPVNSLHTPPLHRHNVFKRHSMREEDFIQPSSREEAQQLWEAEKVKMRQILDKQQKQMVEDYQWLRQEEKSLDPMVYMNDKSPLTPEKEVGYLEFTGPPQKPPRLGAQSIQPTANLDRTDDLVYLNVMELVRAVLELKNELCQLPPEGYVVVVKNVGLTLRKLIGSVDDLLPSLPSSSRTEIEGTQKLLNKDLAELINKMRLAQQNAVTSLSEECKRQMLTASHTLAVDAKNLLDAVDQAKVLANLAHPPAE
T12 sequence (P53778 whole entry): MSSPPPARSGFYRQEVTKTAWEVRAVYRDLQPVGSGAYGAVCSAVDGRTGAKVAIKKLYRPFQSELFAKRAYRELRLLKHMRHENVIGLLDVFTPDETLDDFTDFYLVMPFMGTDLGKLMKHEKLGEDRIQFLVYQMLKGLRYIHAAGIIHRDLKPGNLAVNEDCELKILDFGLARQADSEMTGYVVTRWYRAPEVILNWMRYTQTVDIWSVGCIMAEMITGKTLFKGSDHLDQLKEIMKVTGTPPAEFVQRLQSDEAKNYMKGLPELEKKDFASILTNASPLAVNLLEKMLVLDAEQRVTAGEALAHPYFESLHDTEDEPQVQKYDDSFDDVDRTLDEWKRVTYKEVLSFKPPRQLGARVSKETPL
T10 sequence (Q13043 whole entry): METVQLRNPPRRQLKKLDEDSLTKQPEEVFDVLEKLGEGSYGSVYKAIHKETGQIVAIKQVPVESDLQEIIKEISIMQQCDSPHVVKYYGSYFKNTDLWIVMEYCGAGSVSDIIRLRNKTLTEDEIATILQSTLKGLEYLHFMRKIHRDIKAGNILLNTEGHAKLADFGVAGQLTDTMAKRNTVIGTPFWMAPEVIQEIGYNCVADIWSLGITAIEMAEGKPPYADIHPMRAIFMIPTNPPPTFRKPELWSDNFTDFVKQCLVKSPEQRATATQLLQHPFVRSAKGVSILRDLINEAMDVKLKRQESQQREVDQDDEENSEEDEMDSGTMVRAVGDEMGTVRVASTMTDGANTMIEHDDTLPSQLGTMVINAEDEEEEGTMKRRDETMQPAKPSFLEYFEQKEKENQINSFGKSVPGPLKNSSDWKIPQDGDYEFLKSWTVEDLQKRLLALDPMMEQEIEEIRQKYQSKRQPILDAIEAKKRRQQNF
T3 sequence (P51617 whole entry): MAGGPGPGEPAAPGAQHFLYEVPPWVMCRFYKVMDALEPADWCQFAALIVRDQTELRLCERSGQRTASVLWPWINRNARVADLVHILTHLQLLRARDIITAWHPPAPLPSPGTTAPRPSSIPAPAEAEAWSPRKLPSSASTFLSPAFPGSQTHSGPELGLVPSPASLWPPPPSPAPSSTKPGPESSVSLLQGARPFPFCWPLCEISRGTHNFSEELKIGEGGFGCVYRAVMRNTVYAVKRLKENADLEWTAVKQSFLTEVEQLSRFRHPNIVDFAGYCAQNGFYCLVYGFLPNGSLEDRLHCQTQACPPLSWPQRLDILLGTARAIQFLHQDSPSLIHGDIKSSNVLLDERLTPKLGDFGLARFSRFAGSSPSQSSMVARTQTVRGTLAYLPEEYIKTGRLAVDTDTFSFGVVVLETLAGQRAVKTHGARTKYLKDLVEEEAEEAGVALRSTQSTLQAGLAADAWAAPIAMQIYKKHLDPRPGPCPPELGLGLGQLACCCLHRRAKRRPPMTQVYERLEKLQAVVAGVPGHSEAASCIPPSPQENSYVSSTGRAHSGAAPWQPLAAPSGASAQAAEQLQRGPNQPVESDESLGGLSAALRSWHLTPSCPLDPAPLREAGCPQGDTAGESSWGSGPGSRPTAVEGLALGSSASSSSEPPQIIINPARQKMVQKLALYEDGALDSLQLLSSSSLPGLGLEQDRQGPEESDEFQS
T8 sequence (Q9UK32 whole entry): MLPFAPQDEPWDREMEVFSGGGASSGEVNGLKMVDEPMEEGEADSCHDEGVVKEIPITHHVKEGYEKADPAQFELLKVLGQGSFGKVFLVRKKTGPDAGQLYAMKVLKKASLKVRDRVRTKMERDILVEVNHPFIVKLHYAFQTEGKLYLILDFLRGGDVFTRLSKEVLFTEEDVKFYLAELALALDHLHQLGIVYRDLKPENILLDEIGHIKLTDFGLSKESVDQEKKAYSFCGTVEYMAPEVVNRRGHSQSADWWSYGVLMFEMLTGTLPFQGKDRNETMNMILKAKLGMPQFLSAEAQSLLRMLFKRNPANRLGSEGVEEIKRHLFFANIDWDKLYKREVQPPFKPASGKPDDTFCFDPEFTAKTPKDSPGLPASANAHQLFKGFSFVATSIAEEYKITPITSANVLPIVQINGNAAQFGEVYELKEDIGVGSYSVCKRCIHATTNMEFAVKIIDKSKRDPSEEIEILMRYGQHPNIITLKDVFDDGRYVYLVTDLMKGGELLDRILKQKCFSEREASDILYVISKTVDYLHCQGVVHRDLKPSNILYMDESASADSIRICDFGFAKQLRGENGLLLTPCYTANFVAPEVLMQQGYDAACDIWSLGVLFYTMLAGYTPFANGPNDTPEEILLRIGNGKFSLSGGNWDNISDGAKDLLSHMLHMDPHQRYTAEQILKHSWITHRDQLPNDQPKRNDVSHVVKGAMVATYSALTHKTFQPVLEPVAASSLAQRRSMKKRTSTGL
T13 sequence (P27361 whole entry): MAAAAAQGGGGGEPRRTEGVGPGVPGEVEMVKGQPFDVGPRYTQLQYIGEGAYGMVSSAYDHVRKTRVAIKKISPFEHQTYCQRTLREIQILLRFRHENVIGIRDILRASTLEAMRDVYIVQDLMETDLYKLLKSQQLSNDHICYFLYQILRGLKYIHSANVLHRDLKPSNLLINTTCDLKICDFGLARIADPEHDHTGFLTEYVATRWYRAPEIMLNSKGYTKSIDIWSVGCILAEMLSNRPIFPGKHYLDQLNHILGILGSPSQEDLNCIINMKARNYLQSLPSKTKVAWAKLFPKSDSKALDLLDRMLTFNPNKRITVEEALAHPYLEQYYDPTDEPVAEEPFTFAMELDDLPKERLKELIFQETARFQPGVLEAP

For the compound `[H]/N=C1/NC(=O)C(=Cc2ccc3c(c2)CCO3)S1` [CaNDY, (Z)-5-[(2,3-dihydrobenzofuran-5-yl)methylene]-2-iminothiazolidin-4-one], the remaining activity (commonly the signal under treatment as a percentage of the control signal) at 1 µM in test [1] was determined as 106%; in [2] it was 97.5%; in test [3] it was 87.4%; in test [4], 101%; in test [6], 88%; in [7], 98.7%. Moreover, the remaining activity at 1 µM in test [12] stood at 91.4%; in test [13] it was 96.2%; in [14], 97.6%; in [15], 95.7%; in test [16], 102%; in test [17], 100%. For the same compound, the EC50 (as a rule, the concentration needed to bring the measured effect to its halfway point) in test [5] (293T cells stably expressing CDC37-nanoKAZ, treated one hour, read-out: EC50, decrease of relative luminescence intensity) was found to be 409 nM. For the same compound, in [5] (compounds at 4 μM, 253 compounds), the “relative luminescence intensity in library screen” value is given as “decreased the luminescence intensity to the lowest level”. Further, the “%Activity” value in test [8] came to 94.6%; in [9] it was 107.5%; in [10], 101.2%. Further, the Ki (as a rule, a dissociation constant, usually derived from enzyme kinetics or from competition with a known ligand) in test [11] (competitive inhibition model, 2.5–40 μM ATP) worked out at 1.92 nM. The mode of inhibition entry in test [11] (double-reciprocal plots) is listed as “competed with ATP on a single site of DYRK1A”.
